Measured values taken from ChEMBL document CHEMBL3045238, “Structure-Activity Studies of Insecticidal 2-Methoxy-1, 3, 2-oxazaphospholidine 2-Sulfides against Musca domestica and Tribolium castaneum” (J Pestic Sci, 1990).

How the values were obtained:
Tribolium castaneum = test: Insecticidal activity against fourth-instar Tribolium castaneum (red flour beetle) assessed as inhibition of larval weight gain at 30 degC measured after 2 days by feeding method; format: functional
Musca domestica = test: Insecticidal activity against female Musca domestica (house fly) assessed as mortality compound topically applied to the abdomen measured per fly after 24 hr; format: functional

| Structure (SMILES) | I50 (Tribolium castaneum) | LD50 (Musca domestica) | pLD50 (Musca domestica) |
| --- | --- | --- | --- |
| COc1cccc(C2(C)CNP(=S)(OC)O2)c1 (configuration not stated) | >100 ppm | >1 µg |  |
| COP1(=S)NCC(c2cccc3ccccc23)O1 (configuration not stated) | 25 ppm | 0.68 µg |  |
| COP1(=S)NCC(C)(c2ccccc2F)O1 (configuration not stated) | >100 ppm | 1.26 µg |  |
| COP1(=S)NCC(C)(c2cccc3ccccc23)O1 (configuration not stated) | >100 ppm | >1 µg |  |
| COP1(=S)NCC2(CCCCC2)O1 (configuration not stated) | >100 ppm | >1 µg |  |
| COP1(=S)NCC(c2cc(C)ccc2C)O1 (configuration not stated) | 84 ppm | 0.23 µg |  |
| COc1cc(OC)cc(C2CNP(=S)(OC)O2)c1 (configuration not stated) | >100 ppm | 1.12 µg |  |
| COP1(=S)NCC2(Cc3ccccc3C2)O1 (configuration not stated) | >100 ppm | >1 µg |  |
| COP1(=S)NCC(c2cc(F)ccc2F)O1 (configuration not stated) | >100 ppm | 0.32 µg |  |
| COP1(=S)NCC(c2ccccc2)(C(C)C)O1 (configuration not stated) | >100 ppm | >1 µg |  |
| COP1(=S)NCC(c2ccc(F)cc2)O1 (configuration not stated) | >100 ppm | 0.083 µg | 3.47 |
| COc1cccc(C2CNP(=S)(OC)O2)c1 (configuration not stated) | 46 ppm | 0.18 µg | 3.16 |
| COP1(=S)NCC(c2ccccc2C(F)(F)F)O1 (configuration not stated) | >100 ppm | >1 µg |  |
| COP1(=S)NCC(c2ccc(C)cc2)O1 (configuration not stated) | 5.5 ppm | 0.084 µg | 3.46 |
| COP1(=S)NCC2(O1)C1CCC(C1)C2(C)C (configuration not stated) | >100 ppm | >1 µg |  |
| COP1(=S)NCC(C(C)c2ccccc2)O1 (configuration not stated) | >100 ppm | >1 µg |  |
| COP1(=S)NCC2(CCCC(C)C2)O1 (configuration not stated) | >100 ppm | >1 µg |  |
| COP1(=S)NCC(c2ccc([N+](=O)[O-])cc2)O1 (configuration not stated) | >100 ppm | >1 µg |  |
| CCc1ccc(C2CNP(=S)(OC)O2)cc1 (configuration not stated) | 3.7 ppm | 0.22 µg | 3.07 |
| COP1(=S)NCC2(CC3CCC2(C)C3(C)C)O1 (configuration not stated) | >100 ppm | >1 µg |  |
| COP1(=S)NCC(c2ccc(C(F)(F)F)cc2)O1 (configuration not stated) | >100 ppm | >1 µg |  |
| COP1(=S)NCC(c2ccccc2Br)O1 (configuration not stated) | 49 ppm | 0.5 µg | 2.79 |

| Structure (SMILES) | I50 (Tribolium castaneum) | LD50 (Musca domestica) | pLD50 (Musca domestica) |
| --- | --- | --- | --- |
| COP1(=S)NCC(c2ccc(F)c(F)c2)O1 (configuration not stated) | >100 ppm | 0.59 µg |  |
| COP1(=S)NCC(c2c(Cl)cccc2Cl)O1 (configuration not stated) | 49 ppm | >1 µg |  |
| COP1(=S)NCC(c2ccc(C(C)C)cc2)O1 (configuration not stated) | 5.2 ppm | 0.42 µg | 2.81 |
| COP1(=S)NCC(CCc2ccccc2)O1 (configuration not stated) | >100 ppm | >1 µg |  |
| COP1(=S)NCC(C)(c2cccc(Br)c2)O1 (configuration not stated) | >100 ppm | 0.29 µg |  |
| COP1(=S)NCC2(CCCc3ccccc32)O1 (configuration not stated) | >100 ppm | >1 µg |  |
| COP1(=S)NCC(c2cccc(Cl)c2)O1 (configuration not stated) | >100 ppm | 0.24 µg | 3.04 |
| COP1(=S)NCC(c2cc(Cl)cc(Cl)c2)O1 (configuration not stated) | >100 ppm | >1 µg |  |
| COP(=S)(OC)Oc1ccc([N+](=O)[O-])c(C)c1 [FENITROTHION] | 4.7 ppm | 0.051 µg |  |
| COP1(=S)NCC(c2ccc(Cl)cc2)O1 (configuration not stated) | >100 ppm | 0.16 µg | 3.22 |
| COP1(=S)NCC(c2ccc3ccccc3c2)O1 (configuration not stated) | 11 ppm | 0.64 µg |  |
| COc1ccccc1C1CNP(=S)(OC)O1 (configuration not stated) | 41 ppm | >1 µg |  |
| COc1ccc(C2CNP(=S)(OC)O2)cc1OC (configuration not stated) | >100 ppm | >1 µg |  |
| CCOC(OCC)C1(c2ccccc2)CNP(=S)(OC)O1 (configuration not stated) | >100 ppm | >1 µg |  |
| COP1(=S)NCC(c2cccc([N+](=O)[O-])c2)O1 (configuration not stated) | >100 ppm | >1 µg |  |
| COP1(=S)NCC(c2ccccc2F)O1 (configuration not stated) | 41 ppm | 0.14 µg | 3.25 |
| COP1(=S)NCC(c2ccc(F)cc2F)O1 (configuration not stated) | >100 ppm | 0.35 µg |  |
| COP1(=S)NCC(c2ccc(Br)cc2)O1 (configuration not stated) | >100 ppm | 0.21 µg | 3.13 |
| COP1(=S)NCC(c2cccc(C)c2)O1 (configuration not stated) | 15 ppm | >1 µg |  |
| COP1(=S)NCC(c2ccccc2)O1 (configuration not stated) | 43 ppm | 0.035 µg | 3.82 |
| COP1(=S)NCC(c2cccc(C(F)(F)F)c2)O1 (configuration not stated) | >100 ppm | >1 µg |  |
| COc1cc(C2CNP(=S)(OC)O2)cc(OC)c1OC (configuration not stated) | >100 ppm | >1 µg |  |

| Structure (SMILES) | I50 (Tribolium castaneum) | LD50 (Musca domestica) | pLD50 (Musca domestica) |
| --- | --- | --- | --- |
| COP1(=S)NCC(c2ccccc2Cl)O1 (configuration not stated) | 72 ppm | 0.53 µg | 2.7 |
| COP1(=S)NCC(C)(c2ccccc2)O1 (configuration not stated) | >100 ppm | 0.88 µg |  |
| COP1(=S)NCC(c2ccc(Cl)c(Cl)c2)O1 (configuration not stated) | >100 ppm | >1 µg |  |
| COP1(=S)NCC(c2cc(F)cc(F)c2)O1 (configuration not stated) | >100 ppm | >1 µg |  |
| COP1(=S)NCC(c2ccccc2)(c2ccccc2)O1 (configuration not stated) | >100 ppm | >1 µg |  |
| COc1cccc(C2CNP(=S)(OC)O2)c1OC (configuration not stated) | 6.6 ppm | 0.53 µg |  |
| COP1(=S)NCC(c2cccc(Br)c2)O1 (configuration not stated) | 59 ppm | 0.2 µg | 3.19 |
| COP1(=S)NCC(c2ccc(Cl)cc2Cl)O1 (configuration not stated) | >100 ppm | 0.8 µg |  |
| COP1(=S)NCC(c2ccc(-c3ccccc3)cc2)O1 (configuration not stated) | 62 ppm | >1 µg |  |
| COP1(=S)NCC(c2cccc(F)c2F)O1 (configuration not stated) | >100 ppm | >1 µg |  |
| COP1(=S)NCC(c2cccc(F)c2)O1 (configuration not stated) | >100 ppm | 0.16 µg | 3.19 |
| COP1(=S)NCC(C)(c2cccc(C)c2)O1 (configuration not stated) | >100 ppm | >1 µg |  |
| COP1(=S)NCC(c2cccc(Oc3ccccc3)c2)O1 (configuration not stated) | >100 ppm | >1 µg |  |
| COP1(=S)NCC(Cc2ccccc2)O1 (configuration not stated) | >100 ppm | >1 µg |  |
| COP1(=S)NCC(c2ccc3c(c2)OCO3)O1 (configuration not stated) | >100 ppm | >1 µg |  |
| COP1(=S)NCC(c2ccccc2C)O1 (configuration not stated) | 35 ppm | 0.27 µg | 2.95 |
| COP1(=S)NCC(c2ccc(C)cc2C)O1 (configuration not stated) | 33 ppm | 0.73 µg |  |
| COP1(=S)NCC(C2CC=CCC2)O1 (configuration not stated) | >100 ppm | >1 µg |  |
| COP1(=S)NCC(c2c(F)cccc2F)O1 (configuration not stated) | >100 ppm | 0.82 µg |  |
| COc1ccc(OC)c(C2CNP(=S)(OC)O2)c1 (configuration not stated) | 22 ppm | >1 µg |  |
| COP1(=S)NCC(c2cccc(Cl)c2Cl)O1 (configuration not stated) | >100 ppm | >1 µg |  |
| COP1(=S)NCC(C2CCCCC2)O1 (configuration not stated) | >100 ppm | >1 µg |  |
